Assay in data set [1]: not given
The source holds these as a separate data set.

The nature of data set [2]: method code SF-AS, from DOI: 10.1016/0378-5173(84)90231-x.
Assay in data set [3]: not given
The source holds these as a separate data set.

A short description of data set [4]: method code SF, from DOI: 10.1016/j.nucmedbio.2004.02.004, PMID: 15219281.
Data set [5] is described as follows: method code SF-AS, from DOI: 10.1016/j.bmc.2011.10.017, PMID: 22094277. The conditions noted are these: pH 7.4.
A short description of data set [6]: method code SF, from DOI: 10.1016/s0969-8051(99)00063-3, PMID: 10628565. The conditions noted are these: pH 7.4.
Assay in data set [7]: not given
This is another data set of the same source.

The nature of data set [8]: method code SF-AS, from Jha, T.; Debnath, A.; Mazumdar, A.; Sengupta, C.; De, A. (1986). Hansch analysis of antineoplastic agents, 5-N-substituted-2-p-substituted benzenesulfonyl-L-glutamines. Ind. J. Chem., Sect. B, ….
Assay in data set [9]: not given
The source holds these as a separate data set.

Data set [10] is described as follows: method code SF-HPLC, from DOI: 10.1016/s0021-9673(01)81976-2, PMID: 4066822.
Assay in data set [11]: not given
This is another data set of the same source.

Assay in data set [12]: not given
This is another data set of the same source.

A short description of data set [13]: method code SF-AS, from DOI: 10.1002/jps.2600630206, PMID: 4204981.
Assay in data set [14]: not given
The source holds these as a separate data set.

Assay in data set [15]: not given
This is another data set of the same source.

The conditions of data set [16]: pH 7.4.
Data set [17] can be described thus: method code SF-AS, from DOI: 10.1016/s0021-9673(00)82600-x.
The nature of data set [18]: method code SF-HPLC, from DOI: 10.1248/cpb.37.2861, PMID: 2611948. The following applies: pH 4.0.
Data set [19] is described as follows: method code SF-AS, from DOI: 10.1021/acs.jmedchem.5b01455, PMID: 26523333. The following applies: pH 7.4.
Assay in data set [20]: not given
The source holds these as a separate data set.

A short description of data set [21]: method code SF-AS, from DOI: 10.1515/znc-1987-7-832, PMID: 2961152.
A short description of data set [22]: method code SF-RC, from DOI: 10.1016/j.nucmedbio.2008.01.001, PMID: 18355684. The conditions noted are these: pH 7.4.
Assay in data set [23]: not given
This is another data set of the same source.

Assay in data set [24]: not given
The source holds these as a separate data set.

Data set [25] is described as follows: method code SF, from DOI: 10.1016/s0960-894x(01)80459-5.
The nature of data set [26]: method code SF, from DOI: 10.1071/sr9810061.
Data set [27] is described as follows: method code SF-AS, from DOI: 10.1021/jm991080o, PMID: 10579844. The conditions noted are these: pH 7.4.
A short description of data set [28]: method code SF-AS, from DOI: 10.1021/jf60167a006.
Data set [29] in a line: method code SF-AS, from DOI: 10.1021/bi00405a042.
Data set [30] is described as follows: method code SF-AS, from DOI: 10.1039/ft9959100995.
A short description of data set [31]: method code SF-GLC, from DOI: 10.1007/bf00224496.
Assay in data set [32]: not given
This is another data set of the same source.

Data set [33] can be described thus: method code SF-GLC, from DOI: 10.1007/s002679900238, PMID: 10486045.

`CC(C)=CCC/C(C)=C/C=O`: the logP (usually the decadic logarithm of the partition coefficient of the neutral form, usually between octanol and water) was determined as 3.76. Take `O=C(CCCCCO[N+](=O)[O-])Oc1ccccc1C(=O)O`: the lipophilicity (logP) in data set [1] amounted to 2.49. The molecule `CC(C)(C)[N+]([O-])=Cc1ccc(F)cc1` came in with a lipophilicity (logP) in data set [2] of 1.42. Consider `CCNc1nc(Cl)nc(NC(C)(C)C)n1`, for which the lipophilicity (logP) in [3] stood at 3.06. As to `CC(C)=CCCC(C)CCO` (stereo not drawn), the logP worked out at 3.38.

In turn, `O=c1[nH]c(=O)n(C2CC(O)C(CO)O2)cc1/C=C/I` (stereo not drawn) came in with a logP in [4] of 1.1. In the case of `CC(C)OC(=O)[C@@]1(C)[C@H](CO)CC=[N+]1[O-]`, in [5], the logD (commonly lipophilicity at a set pH, counting ionised and neutral species) was -0.96.

On to `OC[C@@H]1[C@@H](O)[C@H](O)[C@@H](O)CN1C/C=C/I`, for which the pH-dependent lipophilicity (logD) in [6] is -0.37. Consider `N#Cc1ccc(/C=C2\CCCc3ccccc3C2=O)cc1`, for which, in data set [7], the logP was determined as 4.27.

`NC(=O)CCC(NS(=O)(=O)c1ccccc1)C(=O)O` (stereo not drawn) yielded a logP in [8] of 0.58.

As for `Cc1nccn1CC1CCc2c(c3ccccc3n2C)C1=O` (stereo not drawn), the log partition coefficient (logP) in [9] is 1.92. The molecule `CC(C)(C)[N+]([O-])=Cc1ccccc1` registered a logP in [2] of 1.22.

Consider `COC1=CC(=O)C(OC)=C(OC)C1=O`, for which, in [10], the lipophilicity (logP) is 0.22.

Regarding `O=Cc1ccc2cccccc1-2`, in [11], the logP was 2.64. For the molecule `Clc1cc2ccccc2cc1Cl`, the log partition coefficient (logP) in data set [12] came out at 4.71. `CCC(C)(Oc1ccc(Cl)cc1)C(=O)O` (stereo not drawn) showed a logP in data set [13] of 2.9. In the case of `Clc1cc2c(Cl)ccc(Cl)c2c(Cl)c1Cl`, the logP in [14] stood at 6.46.

Take `COc1ncnc2c1ncn2[C@@H]1O[C@H](CO)C[C@H]1F`: the logP in data set [15] came out at 0.25. In data set [5], `CCOC(=O)[C@@]1(C)[C@H](CO)CC=[N+]1[O-]` registered a log distribution coefficient (logD) of -1.3. Molecule `CC(=O)Oc1ccccc1C(=O)OCS(C)=O` (stereo not drawn) yielded a pH-dependent lipophilicity (logD) in data set [16] of 0.11. Molecule `Clc1cc2c(Cl)c(Cl)c(Cl)c(Cl)c2cc1Cl` had a logP in data set [14] of 6.77.

Molecule `CN(C)c1cnn(-c2ccccc2)c(=O)c1Cl` displayed a logP in data set [17] of 1.55. On to `O=c1[nH]c(=O)n(Cc2ccccc2)cc1F`, for which, in data set [18], the logD is 0.89. For `O=c1[nH]c(=O)n([C@@H]2O[C@H](CO)[C@@H](O)[C@H]2F)cc1/C=C/I`, in [4], the lipophilicity (logP) worked out at 1.21. Consider `CC(=O)OCC1C(OC(C)=O)C(OC(C)=O)C(OC(C)=O)CN1Cc1cccc(I)c1` (stereo not drawn), for which the logD in [6] came out at 3.16.

The molecule `Clc1cccc2cccc(Cl)c12` came in with a log partition coefficient (logP) in data set [12] of 4.41. The molecule `CC(F)(F)Cc1c[nH]c2ccccc12` had a pH-dependent lipophilicity (logD) in data set [19] of 3.3. With `O=C[C@H](NC(=O)N(CCCl)N=O)[C@@H](O)[C@H](O)[C@H](O)CO`, the logP in [20] is -1.02. For `CCNc1nc(Cl)nc(N(CC)CC)n1`, the logP in [3] is 3.07. For the molecule `COc1cnn(-c2ccccc2)c(=O)c1Br`, the lipophilicity (logP) in data set [17] amounted to 1.42.

In turn, `CN(C(=O)N(CCCl)N=O)C1CC(C)(C)N(O)C(C)(C)C1` returned a logP in [21] of 1.7. For `O=c1[nH]c(=O)n(Cc2ccc(Cl)cc2)cc1F`, in data set [18], the log distribution coefficient (logD) is 1.64. `CN1CCC=C(c2nsnc2SCCCF)C1`: the pH-dependent lipophilicity (logD) in data set [22] was found to be 2.4. `Oc1ccc(CCOCC2CC2)cc1` had a logP in data set [23] of 3.

`CCC(O)(C(N)=O)c1ccccc1` (stereo not drawn): in [24], the logP worked out at 1.2. The molecule `Nc1ncnc2c1ncn2[C@@H]1O[C@H](CO)C[C@H]1O` registered a lipophilicity (logP) in [25] of -0.65.

`CCC(O)(CC(N)=O)c1ccccc1` (stereo not drawn) returned a logP in [24] of 1.83.

In the case of `CC[C@@H](CO)NCCN[C@@H](CC)CO`, the logP in data set [9] is -0.4. Turning to `Cc1ncc(CNC(=O)N(CCCl)N=O)c(N)n1`, the logP in [20] was 0.39. `CCOP(=O)(OCC)SCS(=O)(=O)C(C)(C)C` displayed a logP in data set [26] of 2.76.

As for `CCC(O)c1c(O)c(=O)cc(C)n1C` (stereo not drawn), the logD in data set [27] was -0.13. As for `CCOP(=O)(OCC)Oc1c(Cl)cc(SC)cc1Cl`, the logP in data set [28] came to 3.72. Regarding `COCCc1ccc(O)cc1`, in data set [23], the logP is 1.85. With `CNC(=O)CCc1c[nH]c2ccccc12`, the logP in [29] is 1.23. `CC1CCC(NC(=O)N(CCCl)N=O)CC1` (stereo not drawn) registered a logP in data set [21] of 3.25. Consider `CC(=O)OCCOCn1cnc2cnc(N)nc21`, for which, in data set [30], the logP was -0.61. In turn, `CC(=O)c1ccc2cccccc1-2` came in with a logP in data set [11] of 2.87. As for `CCc1c(O)c(=O)ccn1CCOC(C)=O`, the logD in [27] was -0.24. Regarding `O=C(O)C1CCc2ccccc2O1` (stereo not drawn), in data set [13], the logP stood at 1.9. `C=C(C)C1CC=C(C)CC1` (stereo not drawn) gave a lipophilicity (logP) in data set [31] of 4.4. `CCOP(=O)(OCC)Oc1ccccc1` returned a logP in [28] of 1.64. The molecule `CCCC(C)(COC(N)=O)COC(N)=O` gave a lipophilicity (logP) in data set [7] of 1.12. Take `CC(=O)Oc1ccccc1C(=O)OCCN(C)C(C)=O`: in data set [16], the logD stood at 1.46. For `COC1=C(OC)C(=O)C(OC)=C(OC)C1=O`, in data set [10], the lipophilicity (logP) was 0.41. As for `CN1CCC=C(c2nsnc2SCCC(F)(F)F)C1`, in [22], the logD was 2.9. The molecule `CCOP(=O)(OCC)SCS(=O)C(C)(C)C` (stereo not drawn) had a lipophilicity (logP) in [26] of 2.66.

`Cc1[nH]cnc1CSCCNC1=NC(=O)CN1` registered a logP in data set [32] of -0.5. With `CC1(C)C2CCC1(C)C(OCCO)C2` (stereo not drawn), in [33], the log partition coefficient (logP) stood at 3.32. `OC[C@@H]1C[C@@H](F)[C@H](n2cnc3c(Cl)ncnc32)O1` returned a lipophilicity (logP) in [15] of 0.32. As to `CNC(=O)CCc1ccccc1`, in data set [29], the logP came to 1.17. As for `CCCCCCCCCCCCCCCCOP(=O)(OCC1CC(O)C(n2cnc3c(N)ncnc32)O1)OCC1OC(n2cc(C)c(=O)[nH]c2=O)CC1N=[N+]=[N-]` (stereo not drawn), the log partition coefficient (logP) in data set [25] turned out to be 3.26. Turning to `FCC(F)Cc1c[nH]c2ccccc12` (stereo not drawn), the log distribution coefficient (logD) in [19] is 2.54. In data set [1], `O=C(CCCO[N+](=O)[O-])Oc1ccccc1C(=O)O` had a lipophilicity (logP) of 1.95. In turn, `CC1=CCC(C(C)C)=CC1` yielded a log partition coefficient (logP) in data set [33] of 4.5. Regarding `C=CC(=C)CCC=C(C)C`, the lipophilicity (logP) in data set [31] was determined as 4.5. As to `Cc1[nH]cnc1CSCCNc1cc(=O)cc[nH]1`, in data set [32], the lipophilicity (logP) was found to be 0.8. For the molecule `CC(=O)Nc1ncc2ncn(COCCOC(C)=O)c2n1`, the logP in data set [30] is -1.05. Regarding `CCCCNC(=O)CCC(NS(=O)(=O)c1ccc(C)cc1)C(=O)O` (stereo not drawn), the lipophilicity (logP) in data set [8] was 0.02.
